In patent US10401298B2, “Label-free detection of small and large molecule interactions, and activities in biological systems” (Arizona Board of Regents on behalf of Arizona State …, priority 2014, dated 2019):
Like-named read-outs stand apart in the source and are kept apart here.

What was measured:
wild type SH-EP1 cells = experiment: Control: response of wild type SH-EP1 cells (no nAChRs expressed) to acetylcholine; format: binding, human; settings: wild type SH-EP1 cells without nAChRs, 500 nM acetylcholine
Source text: H are shown. The scale bar is 20 μm.
Curve 370 represents the measurements for cell G and lighter curve 370 represents the measurements for cell H.

[1] = molecular target: human α4β2 nicotinic acetylcholine receptors (nAChRs) (Homo sapiens, UniProt P17787+P43681); settings: FIG. 5F, 100 nM Acetylcholine
Chain of human α4β2 nicotinic acetylcholine receptors (nAChRs) (P43681 29-627 limits assumed): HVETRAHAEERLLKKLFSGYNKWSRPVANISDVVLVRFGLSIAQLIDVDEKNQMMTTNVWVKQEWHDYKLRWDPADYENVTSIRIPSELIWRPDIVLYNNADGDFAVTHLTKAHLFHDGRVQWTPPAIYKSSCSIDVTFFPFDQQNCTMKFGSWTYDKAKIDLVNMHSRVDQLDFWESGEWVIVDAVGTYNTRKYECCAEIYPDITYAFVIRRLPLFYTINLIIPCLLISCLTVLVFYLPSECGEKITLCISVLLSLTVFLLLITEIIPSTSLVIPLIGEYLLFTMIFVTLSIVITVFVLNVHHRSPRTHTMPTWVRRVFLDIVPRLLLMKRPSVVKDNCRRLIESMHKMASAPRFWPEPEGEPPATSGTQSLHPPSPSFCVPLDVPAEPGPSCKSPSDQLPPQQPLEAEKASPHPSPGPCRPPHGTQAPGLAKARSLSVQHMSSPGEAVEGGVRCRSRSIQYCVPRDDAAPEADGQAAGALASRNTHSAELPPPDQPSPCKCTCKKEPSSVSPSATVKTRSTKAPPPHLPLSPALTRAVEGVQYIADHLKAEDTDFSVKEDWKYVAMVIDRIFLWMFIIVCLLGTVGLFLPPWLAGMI
Chain of human α4β2 nicotinic acetylcholine receptors (nAChRs) (P17787 26-502): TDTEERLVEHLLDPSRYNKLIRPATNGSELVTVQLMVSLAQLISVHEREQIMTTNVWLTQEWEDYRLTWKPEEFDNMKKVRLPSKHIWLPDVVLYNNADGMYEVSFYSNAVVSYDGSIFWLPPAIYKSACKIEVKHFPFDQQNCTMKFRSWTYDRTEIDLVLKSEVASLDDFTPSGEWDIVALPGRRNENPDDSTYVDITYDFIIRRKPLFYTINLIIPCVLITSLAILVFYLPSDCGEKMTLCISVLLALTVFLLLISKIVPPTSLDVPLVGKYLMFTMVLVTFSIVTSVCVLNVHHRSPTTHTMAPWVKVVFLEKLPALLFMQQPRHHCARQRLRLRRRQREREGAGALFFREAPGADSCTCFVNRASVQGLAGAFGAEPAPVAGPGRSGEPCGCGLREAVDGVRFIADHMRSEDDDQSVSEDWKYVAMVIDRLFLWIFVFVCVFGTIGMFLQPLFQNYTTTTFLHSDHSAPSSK
Source text: The edge of a cell 5 can be manually defined from the optical image of the cell, but an imaging processing algorithm can automatically detect the cell edge, providing high throughput. After determining the cell edge, a region of interest (ROI) is selected at a location of the cell edge. The ROI can be a rectangular shape30 with the cell edge 32 passing through the center portion of the rectangle, dividing the rectangle into two equal halves, one half 34 is inside of the cell, and the second half 36 falls outside of the cell. We denote the intensities of the two halves of the differential image as A and B, and (A−B)/(A+B) is calculated and used to determine the movement of the cell edge at each location. […]
The relation between the cell edge movement and the measured differential image intensity change from one of the above differential optical detection method can be determined as below. […] The edge of one cell is manually chosen and the centroid (O) of the cell is determined (FIGS. 1B and 1C). […] The cell edge movement was calculated at every 10 starting from 0 (FIG. 1E). The ROI at a certain point of the cell edge (point A) is then shifted by different numbers of pixels outwards (perpendicular to the tangential line at point A), and the corresponding changes in the differential image intensity is determined from the image. […]

Question: What does the source list for `CC(=O)OCC[N+](C)(C)C.[Cl-]` [acetylcholine, acetylcholine chloride]?
Answer: deformation in the cell membrane (wild type SH-EP1 cells): no deformation; amount of cell membrane deformation after acetylcholine binding ([1]; lower end of range, at region 592): about −40 nm; amount of cell membrane deformation after acetylcholine binding ([1]; upper end of range, at arrow 590): about 80 nm
